Test results reported in PubChem BioAssay AID1919001 (Molecular Pharmacology Branch, DTP, NCI, 2023).

System: 699152-130-R-J1-PDC complex spheroid growth
Assay: Anticancer human tumor 699152-130-R-J1-PDC patient-derived pancreatic carcinoma cell line growth inhibition [AhR]
Conditions: for IC50: curve of first compound; for viability, T/C: stronger effect = lower value
Outline: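 Complex tumor spheroids co-cultured with HUVEC and human MSC stroma; AhR antagonists tested in combination with standard-of-care and investigational agents. Top concentration at or near clinical Cmax (else 10 microM), half-log dilutions; growth expressed as percent test/control.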

[1] = second compound 0.1 µM, first compound 0.0316 µM
[2] = second compound 0.1 µM, first compound 0.1 µM
[3] = second compound 0.1 µM, first compound 0.316 µM
[4] = second compound 0.1 µM, first compound 1 µM
[5] = second compound 0.1 µM, first compound 3.16 µM
[6] = second compound 0.1 µM, first compound 10 µM
[7] = second compound 0.316 µM, first compound 0.0316 µM
[8] = second compound 0.316 µM, first compound 0.1 µM
[9] = second compound 0.316 µM, first compound 0.316 µM
[10] = second compound 0.316 µM, first compound 1 µM
[11] = second compound 0.316 µM, first compound 3.16 µM
[12] = second compound 0.316 µM, first compound 10 µM
[13] = second compound 1 µM, first compound 0.0316 µM
[14] = second compound 1 µM, first compound 0.1 µM
[15] = second compound 1 µM, first compound 0.316 µM
[16] = second compound 1 µM, first compound 1 µM
[17] = second compound 1 µM, first compound 3.16 µM
[18] = second compound 1 µM, first compound 10 µM
[19] = second compound 3.16 µM, first compound 0.0316 µM
[20] = second compound 3.16 µM, first compound 0.1 µM
[21] = second compound 3.16 µM, first compound 0.316 µM
[22] = second compound 3.16 µM, first compound 1 µM
[23] = second compound 3.16 µM, first compound 3.16 µM
[24] = second compound 3.16 µM, first compound 10 µM
[25] = second compound 10 µM, first compound 0.0316 µM
[26] = second compound 10 µM, first compound 0.1 µM
[27] = second compound 10 µM, first compound 0.316 µM
[28] = second compound 10 µM, first compound 1 µM
[29] = second compound 10 µM, first compound 3.16 µM
[30] = second compound 10 µM, first compound 10 µM
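Further: compound exposure lasted 7 days after spheroids had grown for 3 days.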

## O=C(c1cc(Cc2n[nH]c(=O)c3ccccc23)ccc1F)N1CCN(C(=O)C2CC2)CC1 + CC(CO)NC(=O)c1cc(-c2ccc(Cl)cc2)nn(-c2cnn(C)c2)c1=O
Second compound 0.1 µM
  IC50: > 10 µM
Second compound 0.316 µM
  IC50: > 10 µM
Second compound 1 µM
  IC50: > 10 µM
Second compound 3.16 µM
  IC50: > 10 µM
Second compound 10 µM
  IC50: > 10 µM
[1]
  viability, T/C: 85.1%
[2]
  viability, T/C: 107%
[3]
  viability, T/C: 93.3%
[4]
  viability, T/C: 81.8%
[5]
  viability, T/C: 97%
[6]
  viability, T/C: 89.5%
[7]
  viability, T/C: 93%
[8]
  viability, T/C: 88.3%
[9]
  viability, T/C: 88.8%
[10]
  viability, T/C: 87.7%
[11]
  viability, T/C: 77.3%
[12]
  viability, T/C: 78%
[13]
  viability, T/C: 87.6%
[14]
  viability, T/C: 95.9%
[15]
  viability, T/C: 93.4%
[16]
  viability, T/C: 86.6%
[17]
  viability, T/C: 85.5%
[18]
  viability, T/C: 77.4%
[19]
  viability, T/C: 82.8%
[20]
  viability, T/C: 93.1%
[21]
  viability, T/C: 85.5%
[22]
  viability, T/C: 80.5%
[23]
  viability, T/C: 65.6%
[24]
  viability, T/C: 69.7%
[25]
  viability, T/C: 84.3%
[26]
  viability, T/C: 83.1%
[27]
  viability, T/C: 80%
[28]
  viability, T/C: 75.3%
[29]
  viability, T/C: 79.3%
[30]
  viability, T/C: 69.9%

## COc1cc(Nc2ncc3c(n2)-c2ccc(Cl)cc2C(c2c(F)cccc2OC)=NC3)ccc1C(=O)O + CC(CO)NC(=O)c1cc(-c2ccc(Cl)cc2)nn(-c2cnn(C)c2)c1=O
Second compound 0.1 µM
  IC50: > 10 µM
Second compound 0.316 µM
  IC50: > 10 µM
Second compound 1 µM
  IC50: > 10 µM
Second compound 3.16 µM
  IC50: > 10 µM
Second compound 10 µM
  IC50: > 10 µM
[1]
  viability, T/C: 92.5%
[2]
  viability, T/C: 79.1%
[3]
  viability, T/C: 78.6%
[4]
  viability, T/C: 65.3%
[5]
  viability, T/C: 63.8%
[6]
  viability, T/C: 62.3%
[7]
  viability, T/C: 97%
[8]
  viability, T/C: 94.4%
[9]
  viability, T/C: 74.5%
[10]
  viability, T/C: 63%
[11]
  viability, T/C: 65.1%
[12]
  viability, T/C: 60.9%
[13]
  viability, T/C: 95%
[14]
  viability, T/C: 84%
[15]
  viability, T/C: 86%
[16]
  viability, T/C: 65.8%
[17]
  viability, T/C: 64.1%
[18]
  viability, T/C: 59.7%
[19]
  viability, T/C: 85%
[20]
  viability, T/C: 76.1%
[21]
  viability, T/C: 85.3%
[22]
  viability, T/C: 59.6%
[23]
  viability, T/C: 60.2%
[24]
  viability, T/C: 56.1%
[25]
  viability, T/C: 78.7%
[26]
  viability, T/C: 85.8%
[27]
  viability, T/C: 83%
[28]
  viability, T/C: 73.1%
[29]
  viability, T/C: 69.7%
[30]
  viability, T/C: 58.9%

## CC(C)CC(NC(=O)C(Cc1ccccc1)NC(=O)c1cnccn1)B(O)O (stereo unspecified) + CC(CO)NC(=O)c1cc(-c2ccc(Cl)cc2)nn(-c2cnn(C)c2)c1=O
Second compound 0.1 µM
  IC50: 0.00584 µM
Second compound 0.316 µM
  IC50: 0.00584 µM
Second compound 1 µM
  IC50: 0.00539 µM
Second compound 3.16 µM
  IC50: 0.00546 µM
Second compound 10 µM
  IC50: 0.00513 µM
Second compound 0.1 µM, first compound 0.000949 µM
  viability, T/C: 91.3%
Second compound 0.1 µM, first compound 0.003 µM
  viability, T/C: 102%
Second compound 0.1 µM, first compound 0.00949 µM
  viability, T/C: 16%
Second compound 0.1 µM, first compound 0.03 µM
  viability, T/C: 1.65%
Second compound 0.1 µM, first compound 0.0949 µM
  viability, T/C: 10.5%
Second compound 0.1 µM, first compound 0.3 µM
  viability, T/C: 0.88%
Second compound 0.316 µM, first compound 0.000949 µM
  viability, T/C: 92.5%
Second compound 0.316 µM, first compound 0.003 µM
  viability, T/C: 115%
Second compound 0.316 µM, first compound 0.00949 µM
  viability, T/C: 10.9%
Second compound 0.316 µM, first compound 0.03 µM
  viability, T/C: 0.58%
Second compound 0.316 µM, first compound 0.0949 µM
  viability, T/C: 0.4%
Second compound 0.316 µM, first compound 0.3 µM
  viability, T/C: 0.53%
Second compound 1 µM, first compound 0.000949 µM
  viability, T/C: 100%
Second compound 1 µM, first compound 0.003 µM
  viability, T/C: 86.1%
Second compound 1 µM, first compound 0.00949 µM
  viability, T/C: 15.2%
Second compound 1 µM, first compound 0.03 µM
  viability, T/C: 3.08%
Second compound 1 µM, first compound 0.0949 µM
  viability, T/C: 0.35%
Second compound 1 µM, first compound 0.3 µM
  viability, T/C: 0.5%
Second compound 3.16 µM, first compound 0.000949 µM
  viability, T/C: 80.9%
Second compound 3.16 µM, first compound 0.003 µM
  viability, T/C: 92.5%
Second compound 3.16 µM, first compound 0.00949 µM
  viability, T/C: 16.2%
Second compound 3.16 µM, first compound 0.03 µM
  viability, T/C: 1.89%
Second compound 3.16 µM, first compound 0.0949 µM
  viability, T/C: 1.77%
Second compound 3.16 µM, first compound 0.3 µM
  viability, T/C: 5.12%
Second compound 10 µM, first compound 0.000949 µM
  viability, T/C: 74.7%
Second compound 10 µM, first compound 0.003 µM
  viability, T/C: 90.8%
Second compound 10 µM, first compound 0.00949 µM
  viability, T/C: 12.6%
Second compound 10 µM, first compound 0.03 µM
  viability, T/C: 1.86%
Second compound 10 µM, first compound 0.0949 µM
  viability, T/C: 0.41%
Second compound 10 µM, first compound 0.3 µM
  viability, T/C: 0.56%

## CC1COCCN1c1cc(C2(S(C)(=N)=O)CC2)nc(-c2ccnc3[nH]ccc23)n1 (stereo unspecified) + Cc1ccccc1N=Nc1ccc(NC(=O)c2ccnn2C)c(C)c1
Second compound 0.1 µM
  IC50: > 10 µM
Second compound 0.316 µM
  IC50: > 10 µM
Second compound 1 µM
  IC50: > 10 µM
Second compound 3.16 µM
  IC50: > 10 µM
Second compound 10 µM
  IC50: > 10 µM
[1]
  viability, T/C: 109%
[2]
  viability, T/C: 109%
[3]
  viability, T/C: 86.1%
[4]
  viability, T/C: 88.9%
[5]
  viability, T/C: 88.4%
[6]
  viability, T/C: 73.7%
[7]
  viability, T/C: 92%
[8]
  viability, T/C: 98%
[9]
  viability, T/C: 98.4%
[10]
  viability, T/C: 101%
[11]
  viability, T/C: 84.9%
[12]
  viability, T/C: 65.8%
[13]
  viability, T/C: 90.5%
[14]
  viability, T/C: 101%
[15]
  viability, T/C: 99.5%
[16]
  viability, T/C: 95.9%
[17]
  viability, T/C: 84.8%
[18]
  viability, T/C: 65.3%
[19]
  viability, T/C: 105%
[20]
  viability, T/C: 97%
[21]
  viability, T/C: 97.9%
[22]
  viability, T/C: 99%
[23]
  viability, T/C: 79.2%
[24]
  viability, T/C: 69.8%
[25]
  viability, T/C: 111%
[26]
  viability, T/C: 125%
[27]
  viability, T/C: 112%
[28]
  viability, T/C: 104%
[29]
  viability, T/C: 94.8%
[30]
  viability, T/C: 80.6%

## Cc1cncc(-c2nc(NCCc3c[nH]c4ccccc34)c3ncn(C(C)C)c3n2)c1
Compound 0.1 µM
  viability, T/C: 97.9% [middle of 20 runs]
